Results published in ChEMBL document CHEMBL1155853, “N-(thiazol-2-yl)-2-thiophene carboxamide derivatives as Abl inhibitors identified by a pharmacophore-based database screening of commercially available compounds” (Bioorg Med Chem Lett, 2008).

Biological target: Tyrosine-protein kinase ABL1 (Homo sapiens, UniProt P00519)
Test: Inhibition of Abl kinase by cell free assay

Chain of Tyrosine-protein kinase ABL1 (P00519 whole entry): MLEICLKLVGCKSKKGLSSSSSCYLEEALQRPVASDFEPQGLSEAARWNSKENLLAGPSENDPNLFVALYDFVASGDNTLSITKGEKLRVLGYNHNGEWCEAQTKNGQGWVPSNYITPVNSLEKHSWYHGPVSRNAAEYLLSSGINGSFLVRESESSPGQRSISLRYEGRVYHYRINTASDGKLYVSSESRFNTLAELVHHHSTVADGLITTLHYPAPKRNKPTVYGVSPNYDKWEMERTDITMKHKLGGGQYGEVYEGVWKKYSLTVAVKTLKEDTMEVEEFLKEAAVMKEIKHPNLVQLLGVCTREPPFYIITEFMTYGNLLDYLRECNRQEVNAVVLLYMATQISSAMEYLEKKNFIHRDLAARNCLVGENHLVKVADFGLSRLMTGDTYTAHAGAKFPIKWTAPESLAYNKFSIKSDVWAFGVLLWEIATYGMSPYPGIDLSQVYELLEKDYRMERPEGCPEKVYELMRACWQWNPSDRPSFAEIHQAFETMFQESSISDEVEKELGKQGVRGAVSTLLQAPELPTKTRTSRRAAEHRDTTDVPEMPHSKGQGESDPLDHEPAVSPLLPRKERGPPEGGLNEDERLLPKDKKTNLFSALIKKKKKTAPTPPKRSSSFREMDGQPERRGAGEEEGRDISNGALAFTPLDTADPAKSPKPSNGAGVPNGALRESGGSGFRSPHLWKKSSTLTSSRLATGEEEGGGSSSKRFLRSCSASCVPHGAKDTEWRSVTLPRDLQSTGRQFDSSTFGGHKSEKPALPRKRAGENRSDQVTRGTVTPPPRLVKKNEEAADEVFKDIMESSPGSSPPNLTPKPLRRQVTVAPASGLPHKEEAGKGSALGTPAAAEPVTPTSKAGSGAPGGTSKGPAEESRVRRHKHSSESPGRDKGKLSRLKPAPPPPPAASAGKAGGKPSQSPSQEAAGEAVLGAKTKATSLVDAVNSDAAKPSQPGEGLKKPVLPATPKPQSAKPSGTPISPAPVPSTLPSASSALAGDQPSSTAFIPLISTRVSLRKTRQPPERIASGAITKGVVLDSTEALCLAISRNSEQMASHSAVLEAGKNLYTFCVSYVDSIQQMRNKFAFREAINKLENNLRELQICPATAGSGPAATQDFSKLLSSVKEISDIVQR

| Ki [nM] | Structure (SMILES) |
| --- | --- |
| 3470 | O=C(Nc1ncc(Cc2ccc(Cl)cc2Cl)s1)c1cccs1 |
| 249 | Cc1ccc(Cc2cnc(NC(=O)c3cccs3)s2)cc1 |
| 90 | O=C(Nc1ncc(Cc2ccccc2)s1)c1cccs1 |
| 59 | Cc1cccc(Cc2cnc(NC(=O)c3cccs3)s2)c1 |
| 50 | O=C(Nc1ncc(Cc2cc(Cl)ccc2Cl)s1)c1cccs1 |
| 97 | O=C(Nc1ncc(Cc2cccc(Cl)c2)s1)c1cccs1 |

The next lines start with the compound.

| Structure (SMILES) | Ki [nM] |
| --- | --- |
| COc1ccc(Cc2cnc(NC(=O)c3cccs3)s2)cc1 | 16 |
| O=C(Nc1ncc(-c2ccc(F)cc2)s1)c1cccs1 | 1650 |
| O=C(Nc1ncc(-c2ccc(Cl)cc2)s1)c1cccs1 | 791 |
| COc1ccc2c(c1)Cc1sc(NC(=O)c3cccs3)nc1-2 | 68 |
| O=C(Nc1nnc(COc2ccccc2)s1)c1cccs1 | 278 |
| O=C(Nc1ncc(Cc2cccc(C(F)(F)F)c2)s1)c1cccs1 | 136 |
| O=C(Nc1ncc(Cc2ccccc2F)s1)c1cccs1 | 170 |
| O=C(Nc1ncc(Cc2ccc(Cl)cc2)s1)c1cccs1 | 624 |
| O=C(Nc1ncc(Cc2cc(C(F)(F)F)ccc2Cl)s1)c1cccs1 | 845 |
| O=C(Nc1ncc(Cc2ccc(F)cc2)s1)c1cccs1 | 130 |
| O=C(Nc1nnc(Cc2ccccc2)s1)c1cccs1 | 360 |
| O=C(Nc1ncc(Cc2ccccc2Cl)s1)c1cccs1 | 245 |
